From US12220395B2, “Intermittent endurance capacity improving agent or blood pH elevating agent” (AJINOMOTO CO., INC., priority 2018, dated 2025)

Assays:
C57BL/6J male mice [1] = test: increase in mouse plasma pH by oral administration; conditions: for blood (plasma) pH increasing effect, time course: 7- to 9-week-old mice, aspartic acid 1 g/kg, blood sampled 30, 60, 120 min after administration, i-STAT, FIGS. 2 and 3
C57BL/6J male mice [2] = test: mouse YO-YO test (intermittent endurance capacity, treadmill); type: in vivo; conditions: 6-week-old mice; oral aqueous solution 1 to 2 g/kg; YO-YO test from 30 min after administration; compared to water (negative control); FIG. 1
Protocol: After ingesting a test substance into 6-week-old C57BL/6J male mice, a mouse YO-YO test was conducted to evaluate an intermittent endurance capacity improving effect of the test substance using the intermittent endurance capacity of each individual as an index. As the test substance, 20 kinds of amino acids (or salts thereof) were used.
Preliminary running was performed on the mice one week before the main test. […] Unable to run was judged when the mouse could not keep up with the running speed. […] Grouping was performed such that the number of running sets and body weight of each individual obtained in the preliminary running were about the same for each group.
In the week following the preliminary running, the mice evaluated for the intermittent endurance capacity were orally administered with an aqueous solution containing a test substance in a dose of 1 to 2 g/kg mouse body weight, or water (negative control) at 20 mL/kg mouse body weight. […] From 30 min after the oral administration, the above-mentioned YO-YO test was performed to evaluate the effect of the test substance on the number of runnable sets of each individual. […]

| Structure (SMILES) | blood (plasma) pH increasing effect, time course (C57BL/6J male mice [1]) | time of peak of the pH increasing effect (C57BL/6J male mice [1]; plasma pH, mice, FIG. 2) [hr] | increase in the number of runnable sets (intermittent endurance capacity improving effect) (C57BL/6J male mice [2]) |
| --- | --- | --- | --- |
| O=C([O-])O.[Na+] [sodium hydrogen carbonate] | the pH increasing effect disappeared rapidly thereafter | 0.5 |  |
| N[C@@H](CC(=O)O)C(=O)O [aspartic acid] | affords an effect of increasing blood pH even after 0.5 hr to 2 hr from the administration |  | significantly increased the number of runnable sets |
| N[C@@H](Cc1ccc(O)cc1)C(=O)O [tyrosine] |  |  | significantly increased the number of runnable sets |
